Source: patent publication US20130225583A1, “SUBSTITUTED AMINO-TRIAZOLYL PDE10 INHIBITORS” (priority 2010, published 2013)

Target: T1, human PDE10A2 (Homo sapiens, UniProt Q9Y233)
T1 construct: made in house; host or cells: AD293 cells, transiently transfected; The cytosolic supernatant of the lysate served as the enzyme
Assay: PDE10 fluorescence polarization (IMAP FP) inhibition assay
Type: biochemical
Conditions: apparent inhibition constant; FAM-labeled cAMP 50 nM; lysate of AD293 cells transfected with human PDE10A2; room temperature; read-out: PDE10a Ki
Procedure: The activity of the compounds in accordance with the present invention as PDE10 inhibitors may be readily determined without undue experimentation using a fluorescence polarization (FP) methodology that is well known in the art (Huang, W., et al., J. Biomol Screen, 2002, 7: 215).
In a typical experiment the PDE 10 inhibitory activity of the compounds of the present invention was determined in accordance with the following experimental method. PDE 10A2 was amplified from human fetal brain cDNA (Clontech, Mountain View, Calif.) using a forward primer corresponding to nucleotides 56-77 of human PDE10A2 (Accession No. AF127480, Genbank Identifier 4894716), containing a Kozak consensus sequence, and a reverse primer corresponding to nucleotides 2406-2413 of human PDE10A2 (Accession No. AF127480, Genbank Identifier 4894716). Amplification with Easy-A polymerase (Stratagene, La Jolla, Calif.) was 95° C. for 2 minutes followed by thirty three cycles of 95° C. for 40 seconds, 55° C. for 30 seconds, and 72° C. for 2 minutes 48 seconds. Final extension was 72° C. for 7 minutes. The PCR product was TA cloned into pcDNA3.2-TOPO (Invitrogen, Carlsbad, Calif.) according to standard protocol. AD293 cells with 70-80% confluency were transiently transfected with human PDE10A2/pcDNA3.2-TOPO using Lipofectamine 2000 according to manufacturer specifications (Invitrogen, Carlsbad, Calif.). Cells were harvested 48 hours post-transfection and lysed by sonication (setting 3, 10×5 sec pulses) in a buffer containing 20 mM HEPES, 1 mM EDTA and protease inhibitor cocktail (Roche). Lysate was collected by centrifugation at 75,000×g for 20 minutes. Supernatant containing the cytoplasmic fraction was used for evaluation of PDE10A2 activity. The fluorescence polarization assay for cyclic nucleotide phosphodiesterases was performed using an IMAP® FP kit supplied by Molecular Devices, Sunnyvale, Calif. (product # R8139). IMAP® technology has been applied previously to phosphodiesterase assays (Huang, W., et al., J. Biomol Screen, 2002, 7: 215). Assays were performed at room temperature in 384-well microtiter plates with an incubation volume of 20.2 μL. Solutions of test compounds were prepared in DMSO and serially diluted with DMSO to yield 8 μL of each of 10 solutions differing by 3-fold in concentration, at 32 serial dilutions per plate. 100% inhibition is determined using a known PDE 10 inhibitor, which can be any compound that is present at 5,000 times its Ki value in the assay described as follows, such as papaverine (see Siuciak, et al. Neuropharmacology (2006) 51:386-396; Becker, et al. Behav Brain Res (2008) 186(2):155-60; Threlfell, et al., J Pharmacol Exp Ther (2009) 328(3):785-795), 2-{4-[pyridin-4-yl-1-(2,2,2-trifluoroethyl)-1H-pyrazol-3-yl]phenoxymethyl}quinoline succinic acid or 2-[4-(1-methyl-4-pyridin-4-yl-1H-pyrazol-3-yl)-phenoxymethyl]quinoline succinic acid (see Schmidt, et al. J Pharmacol Exp Ther (2008) 325:681-690; Threlfell, et al., J Pharmacol Exp Ther (2009) 328(3): 785-795). 0% of inhibition is determined by using DMSO (1% final concentrations). A Labcyte Echo 555 (Labcyte, Sunnyvale, Calif.) is used to dispense 200 nL from each well of the titration plate to the 384 well assay plate. A solution of enzyme ( 1/7000 dilution from aliquots; sufficient to produce 20% substrate conversion) and a separate solution of FAM-labeled cAMP PDE from Molecular Devices (product # R7506), at a final concentration of 50 nM are made in the assay buffer (10 mM Tris HCl, pH 7.2, 10 mM MgCl2, 0.05% NaN3 0.01% Tween-20, and 1 mM DTT). The enzyme is added to the assay plates by the addition of 10 μL of enzyme solution to each well, shaken to mix and incubated at room temperature for 60 minutes. The substrate is then added to the assay plates by the addition of 10 μL of substrate solution to each well, shaken to mix, and incubated at room temperature for 60 minutes. […]

T1 sequence (Q9Y233 267-1055): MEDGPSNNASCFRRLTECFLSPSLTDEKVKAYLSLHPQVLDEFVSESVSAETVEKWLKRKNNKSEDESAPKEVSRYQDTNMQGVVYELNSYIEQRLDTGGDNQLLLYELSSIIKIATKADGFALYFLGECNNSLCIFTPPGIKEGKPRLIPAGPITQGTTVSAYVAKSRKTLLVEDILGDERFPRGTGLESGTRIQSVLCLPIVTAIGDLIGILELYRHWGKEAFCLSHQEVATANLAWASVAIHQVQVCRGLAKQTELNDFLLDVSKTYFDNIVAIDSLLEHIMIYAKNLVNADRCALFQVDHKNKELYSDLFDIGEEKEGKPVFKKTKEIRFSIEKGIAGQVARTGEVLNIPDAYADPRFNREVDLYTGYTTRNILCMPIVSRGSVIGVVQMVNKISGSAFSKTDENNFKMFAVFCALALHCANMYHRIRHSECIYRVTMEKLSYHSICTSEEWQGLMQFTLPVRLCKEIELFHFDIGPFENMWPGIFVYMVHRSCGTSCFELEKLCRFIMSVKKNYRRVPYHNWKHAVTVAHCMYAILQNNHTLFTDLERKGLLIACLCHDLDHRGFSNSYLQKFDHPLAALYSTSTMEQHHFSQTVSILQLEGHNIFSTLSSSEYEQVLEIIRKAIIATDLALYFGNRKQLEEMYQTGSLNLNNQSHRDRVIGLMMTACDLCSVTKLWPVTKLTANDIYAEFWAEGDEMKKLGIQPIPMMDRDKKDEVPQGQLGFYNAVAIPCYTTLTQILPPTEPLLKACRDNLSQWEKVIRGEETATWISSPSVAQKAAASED

Compared with `COc1ccc(Cc2nc(N)nn2-c2cc(=O)n(CC3(c4ccccc4)CC3(F)F)cn2)cc1OC` (stereo not shown) [1-59, 6-(3-amino-5-(3,4-dimethoxybenzyl)-1H-1,2,4-triazol-1-yl)-3-((2,2-difluoro-1-phenylcyclopropyl)methyl)pyrimidin-4(3H)-one], `COc1ccc(Cc2nc(N)nn2-c2cc(=O)n(Cc3nc4ccccc4s3)cn2)cc1OC` [1-73, 6-(3-amino-5-(3,4-dimethoxybenzyl)-1H-1,2,4-triazol-1-yl)-3-(benzo[d]thiazol-2-ylmethyl)pyrimidin-4(3H)-one] is lower in Ki: 0.22 µM for the first, less than 0.0038 µM for the second. The second binds more tightly here.

Going from `COc1ccc(Cc2nc(N)nn2-c2cc(OC(C)C)ncn2)cc1OC` [1-60, 5-(3,4-dimethoxybenzyl)-1-(6-isopropoxypyrimidin-4-yl)-1H-1,2,4-triazol-3-amine] to `CCCOc1cc(-n2nc(N)nc2Cc2ccc(OC)c(OC)c2)ncn1` [1-63, 5-(3,4-dimethoxybenzyl)-1-(6-propoxypyrimidin-4-yl)-1H-1,2,4-triazol-3-amine], the Ki falls from 0.37 µM to 0.035 µM (11-fold).

Going from `COc1ccc(Cc2nc(N)nn2-c2cc(OC3CCCCC3)ncn2)cc1OC` [1-61, 1-(6-(cyclohexyloxy)pyrimidin-4-yl)-5-(3,4-dimethoxybenzyl)-1H-1,2,4-triazol-3-amine] to `COc1ccc(Cc2nc(N)nn2-c2cc(OCC3CCC3)ncn2)cc1OC` [1-62, 1-(6-(cyclobutylmethoxy)pyrimidin-4-yl)-5-(3,4-dimethoxybenzyl)-1H-1,2,4-triazol-3-amine], the Ki falls from 0.019 µM to 0.0086 µM (2.2-fold).

Compared with `COc1ccc(Cc2nc(N)nn2-c2cc(OCC(C)(C)C)ncn2)cc1OC` [1-64, 5-(3,4-dimethoxybenzyl)-1-(6-(neopentyloxy)pyrimidin-4-yl)-1H-1,2,4-triazol-3-amine], `COc1ccc(Cc2nc(N)nn2-c2cc(OCC3CC3c3ccccc3)ncn2)cc1OC` (stereo not shown) [1-67, 5-(3,4-dimethoxybenzyl)-1-(6-((2-phenylcyclopropyl)methoxy)pyrimidin-4-yl)-1H-1,2,4-triazol-3-amine] is 25-fold higher in Ki: 0.013 µM for the first, 0.32 µM for the second. The first binds more tightly here.

Going from `COc1ccc(Cc2nc(N)nn2-c2cc(OCc3ccc4ccccc4n3)ncn2)cc1OC` [1-68, 5-(3,4-dimethoxybenzyl)-1-(6-(quinolin-2-ylmethoxy)pyrimidin-4-yl)-1H-1,2,4-triazol-3-amine] to `COc1ccc(Cc2nc(N)nn2-c2cc(=O)n(Cc3ccc4ccccc4n3)cn2)cc1OC` [1-75, 6-(3-amino-5-(3,4-dimethoxybenzyl)-1H-1,2,4-triazol-1-yl)-3-(quinolin-2-ylmethyl)pyrimidin-4(3H)-one], the Ki falls from 0.76 µM to 0.064 µM (12-fold). The second binds more tightly here.

`COc1ccc(Cc2nc(N)nn2-c2cc(=O)n(C(C)C)cn2)cc1OC` [1-69, 6-(3-amino-5-(3,4-dimethoxybenzyl)-1H-1,2,4-triazol-1-yl)-3-isopropylpyrimidin-4(3H)-one] and `CCCn1cnc(-n2nc(N)nc2Cc2ccc(OC)c(OC)c2)cc1=O` [1-71, 6-(3-amino-5-(3,4-dimethoxybenzyl)-1H-1,2,4-triazol-1-yl)-3-propylpyrimidin-4(3H)-one] are within 1.5-fold of each other in Ki: 0.54 µM for the first, 0.62 µM for the second.

Compared with `COc1ccc(Cc2nc(N)nn2-c2cc(=O)n(CC3CCC3)cn2)cc1OC` [1-70, 6-(3-amino-5-(3,4-dimethoxybenzyl)-1H-1,2,4-triazol-1-yl)-3-(cyclobutylmethyl)pyrimidin-4(3H)-one], `COc1ccc(Cc2nc(N)nn2-c2cc(Oc3cccnc3)nc(C)n2)cc1OC` [1-79, 5-(3,4-dimethoxybenzyl)-1-(2-methyl-6-(pyridin-3-yloxy)pyrimidin-4-yl)-1H-1,2,4-triazol-3-amine] is 4.9-fold lower in Ki: 0.64 µM for the first, 0.13 µM for the second.

Compared with `COc1ccc(CNc2nc(Cc3ccc(OC)c(OC)c3)n(-c3cc(Oc4ccccn4)nc(C)n3)n2)cc1` [1-76, 5-(3,4-dimethoxybenzyl)-N-(4-methoxybenzyl)-1-(2-methyl-6-(pyridin-2-yloxy)pyrimidin-4-yl)-1H 1,2,4-triazol-3-amine], `COc1ccc(CNc2nc(Cc3ccc(OC)c(OC)c3)n(-c3cc(Oc4cccnc4)nc(C)n3)n2)cc1` [1-77, 5-(3,4-dimethoxybenzyl)-N-(4-methoxybenzyl)-1-(2-methyl-6-(pyridin-3-yloxy)pyrimidin-4-yl)-1H-1,2,4-triazol-3-amine] is higher in Ki: less than 0.0038 µM for the first, 1 µM for the second. The first binds more tightly here.

Going from `COc1ccc(CNc2nc(Cc3ccc(OC)c(OC)c3)n(-c3cc(Oc4ccccn4)nc(C)n3)n2)cc1` [1-80, 5-(3,4-dimethoxybenzyl)-N-(4-methoxybenzyl)-1-(2-methyl-6-(pyridin-2-yloxy)pyrimidin-4-yl)-1H-1,2,4-triazol-3-amine] to `COc1ccc(CNc2nc(Cc3ccc(OC)c(OC)c3)n(-c3cc(C#Cc4ccccn4)nc(C)n3)n2)cc1` [1-84, 5-(3,4-dimethoxybenzyl)-N-(4-methoxybenzyl)-1-(2-methyl-6-(pyridin-2-ylethynyl)pyrimidin-4-yl)-1H-1,2,4-triazol-3-amine], the Ki falls from 0.49 µM to 0.019 µM (26-fold).

For `COc1ccc(Cc2nc(N)nn2-c2cc(Oc3ccc4ccccc4n3)nc(C)n2)cc1OC` [1-83, 3-amino-5-(3,4-dimethoxybenzyl)-1-(2-methyl-6-(quinolin-2-yloxy)pyrimidin-4-yl)-1H-1,2,4-triazole-2,4-diium], the Ki was 0.047 µM.
